Source: EPA's ToxValDB 9.5 (doi:10.2903/j.efsa.2012.2927)
Counter-ions that a name gives are not always drawn.

Test system: Rattus norvegicus
Settings: oral, no effects
[1] = chronic, duration: 17 weeks, gavage
[2] = subchronic, duration: 90 days, diet
[3] = subchronic, duration: 90 days, drinking water

Structure (SMILES)	NOAEL [1] [mg/kg-day]	NOAEL [2] [mg/kg-day]	NOAEL [3] [mg/kg-day]	NOAEL (subchronic, duration: 90 days) [mg/kg-day]
CCC(CC)C(=O)O [2-Ethylbutyric acid]	> 1000	> 2500	> 1450	> 219
CC(C)CO [2-Methyl-1-propanol]	> 1000	> 2500	> 1450	> 219
CCC(C)C=O (stereo unspecified) [2-Methylbutanal]	> 1000	> 2500	> 1450	> 219
CCC(C)COC(C)=O (stereo unspecified) [2-Methylbutyl acetate]	> 1000	> 2500	> 1450	> 219
CCC(C)COC(=O)CC(C)C (stereo unspecified) [2-Methylbutyl isovalerate]	> 1000	> 2500	> 1450	> 219
CCCC(C)C(=O)O (stereo unspecified) [2-Methylpentanoic acid]	> 1000	> 2500	> 1450	> 219
CC(C)C(=O)O [2-Methylpropanoic acid]	> 1000	> 2500	> 1450	> 219
CC(C)CC=O [3-Methylbutanal]	> 1000	> 2500	> 1450	> 219
CC(=O)OCCC(C)C [3-Methylbutyl acetate]	> 1000	> 2500	> 1450	> 219
CCC(=O)OCCC(C)C [3-Methylbutyl propanoate]	> 1000	> 2500	> 1450	> 219
CCC(C)C(=O)OCCC(C)C (stereo unspecified) [Butanoic acid, 2-methyl-, 3-methylbutyl ester]	> 1000	> 2500	> 1450	> 219
CCCC(=O)OCC(C)CC (stereo unspecified) [Butanoic acid, 2-methylbutyl ester]	> 1000	> 2500	> 1450	> 219
CC(C)COC(=O)CC(C)C [Butanoic acid, 3-methyl-, 2-methylpropyl ester]	> 1000	> 2500	> 1450	> 219
CCCC(=O)OCC(COC(=O)CCC)OC(=O)CCC [Glycerol tributyrate]	> 1000	> 2500	> 1450	> 219
CCCCCC(C)C(=O)O (stereo unspecified) [Heptanoic acid, 2-methyl-]	> 1000	> 2500	> 1450	> 219
CC(C)CCOC=O [Isoamyl formate]	> 1000	> 2500	> 1450	> 219
CC(=O)OCC(C)C [Isobutyl acetate]	> 1000	> 2500	> 1450	> 219
CCCC(=O)OCC(C)C [Isobutyl butyrate]	> 1000	> 2500	> 1450	> 219
CC(C)COC(=O)C(C)C [Isobutyl isobutyrate]	> 1000	> 2500	> 1450	> 219
CC(C)CCO [Isopentyl alcohol]	> 1000	> 2500	> 1450	> 219
CCCC(=O)OCCC(C)C [Isopentyl butyrate]	> 1000	> 2500	> 1450	> 219
CC(C)CCOC(=O)C(C)C [Isopentyl isobutyrate]	> 1000	> 2500	> 1450	> 219
CC(C)CC(=O)O [Isovaleric acid]	> 1000	> 2500	> 1450	> 219
CCCCC(C)CCC(=O)O (stereo unspecified) [Octanoic acid, 4-methyl-]	> 1000	> 2500	> 1450	> 219
